# Test results from the supplement of paper PMC10307832.
# Key:
# Experiment in all cases: relative viability (nuclei count vs DMSO), 5 days (fraction); higher = more cells survive
# NCI-H2228 = tested on: NCI-H2228
# Summary of the method: (§1)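 Medians of duplicate plates are given as relative viability. That measure is the nuclei count in treated wells divided by the count in vehicle wells. Counts were taken on 4× images of lung cancer cell lines in 1536-well plates, 5 days after pin-tool dosing the day after seeding with one drug alone or a fixed anchor-drug dose plus five library-drug doses (not always all listed) in √10 steps.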
# NCI-H23 = tested on: NCI-H23
# Summary of the method: as §1
# LK-2 = tested on: LK-2
# Summary of the method: as §1
# PC-14 = tested on: PC-14
# Summary of the method: as §1
# HCC-44 = tested on: HCC-44
# Summary of the method: as §1
# PC-3 [JPC-3] = tested on: PC-3 [JPC-3]
# Summary of the method: as §1
# SW 900 = tested on: SW 900
# Summary of the method: as §1
# NCI-H596 = tested on: NCI-H596
# Summary of the method: as §1
# NCI-H2347 = tested on: NCI-H2347
# Summary of the method: as §1
# SW 1573 = tested on: SW 1573
# Summary of the method: as §1
# LCLC-103H = tested on: LCLC-103H
# Summary of the method: as §1
# NCI-H460 = tested on: NCI-H460
# Summary of the method: as §1
# A-427 = tested on: A-427
# Summary of the method: as §1
# COR-L23 = tested on: COR-L23
# Summary of the method: as §1
# NCI-H1650 = tested on: NCI-H1650
# Summary of the method: as §1
# NCI-H727 = tested on: NCI-H727
# Summary of the method: as §1
# H3255 = tested on: H3255
# Summary of the method: as §1
# NCI-H1793 = tested on: NCI-H1793
# Summary of the method: as §1
# 201T = tested on: 201T
# Summary of the method: as §1
# LU99A = tested on: LU99A
# Summary of the method: as §1
# LC-2-ad = tested on: LC-2-ad
# Summary of the method: as §1
# LCLC-97TM1 = tested on: LCLC-97TM1
# Summary of the method: as §1
structure (smiles),measurement,setting,value
O=c1cc(N2CCOCC2)oc2c(-c3cccc4c3sc3ccccc34)cccc12 + O=C(c1cc(Cc2n[nH]c(=O)c3ccccc23)ccc1F)N1CCN(C(=O)C2CC2)CC1 [Olaparib] (partner 8 µM),relative viability,NCI-H2228; first compound 0.01 µM,0.646
same,relative viability,NCI-H2228; first compound 0.03162 µM,0.654
same,relative viability,NCI-H2228; first compound 0.1 µM,0.891
same,relative viability,NCI-H2228; first compound 0.3162 µM,0.803
same,relative viability,NCI-H2228; first compound 1 µM,0.571
same,relative viability,NCI-H23; first compound 0.01 µM,0.399
same,relative viability,NCI-H23; first compound 0.03162 µM,0.335
same,relative viability,NCI-H23; first compound 0.3162 µM,0.344
same,relative viability,NCI-H23; first compound 1 µM,0.343
same,relative viability,LK-2; first compound 0.01 µM,0.802
same,relative viability,LK-2; first compound 0.03162 µM,0.554
same,relative viability,LK-2; first compound 0.1 µM,0.847
same,relative viability,LK-2; first compound 0.3162 µM,0.722
same,relative viability,LK-2; first compound 1 µM,0.737
same,relative viability,PC-14; first compound 0.01 µM,0.285
same,relative viability,PC-14; first compound 0.03162 µM,0.21
same,relative viability,PC-14; first compound 0.1 µM,0.325
same,relative viability,PC-14; first compound 0.3162 µM,0.282
same,relative viability,PC-14; first compound 1 µM,0.269
same,relative viability,HCC-44; first compound 0.01 µM,1.01
same,relative viability,HCC-44; first compound 0.03162 µM,0.909
same,relative viability,HCC-44; first compound 0.1 µM,0.917
same,relative viability,HCC-44; first compound 0.3162 µM,0.973
same,relative viability,HCC-44; first compound 1 µM,0.987
same,relative viability,PC-3 [JPC-3]; first compound 0.01 µM,1.07
same,relative viability,PC-3 [JPC-3]; first compound 0.03162 µM,1.11
same,relative viability,PC-3 [JPC-3]; first compound 0.1 µM,1.15
same,relative viability,PC-3 [JPC-3]; first compound 0.3162 µM,1.14
same,relative viability,PC-3 [JPC-3]; first compound 1 µM,1.09
same,relative viability,SW 900; first compound 0.03162 µM,0.918
same,relative viability,SW 900; first compound 0.1 µM,0.794
same,relative viability,SW 900; first compound 0.3162 µM,0.719
same,relative viability,SW 900; first compound 1 µM,0.572
same,relative viability,NCI-H596; first compound 0.01 µM,0.675
same,relative viability,NCI-H596; first compound 0.03162 µM,0.628
same,relative viability,NCI-H596; first compound 0.1 µM,0.735
same,relative viability,NCI-H596; first compound 0.3162 µM,0.683
same,relative viability,NCI-H596; first compound 1 µM,0.694
same,relative viability,NCI-H2347; first compound 0.01 µM,0.597
same,relative viability,NCI-H2347; first compound 0.03162 µM,0.541
same,relative viability,NCI-H2347; first compound 0.1 µM,0.553
same,relative viability,NCI-H2347; first compound 0.3162 µM,0.621
same,relative viability,NCI-H2347; first compound 1 µM,0.551
same,relative viability,SW 1573; first compound 0.01 µM,0.491
same,relative viability,SW 1573; first compound 0.03162 µM,0.446
same,relative viability,SW 1573; first compound 0.1 µM,0.447
same,relative viability,SW 1573; first compound 0.3162 µM,0.441
same,relative viability,SW 1573; first compound 1 µM,0.466
same,relative viability,LCLC-103H; first compound 0.01 µM,0.718
same,relative viability,LCLC-103H; first compound 0.03162 µM,0.786
same,relative viability,LCLC-103H; first compound 0.1 µM,0.771
same,relative viability,LCLC-103H; first compound 0.3162 µM,0.707
same,relative viability,LCLC-103H; first compound 1 µM,0.749
same,relative viability,NCI-H460; first compound 0.01 µM,0.452
same,relative viability,NCI-H460; first compound 0.03162 µM,0.37
same,relative viability,NCI-H460; first compound 0.1 µM,0.452
same,relative viability,NCI-H460; first compound 0.3162 µM,0.403
same,relative viability,NCI-H460; first compound 1 µM,0.406
same,relative viability,A-427; first compound 0.01 µM,0.742
same,relative viability,A-427; first compound 0.03162 µM,0.706
same,relative viability,A-427; first compound 0.1 µM,0.737
same,relative viability,A-427; first compound 0.3162 µM,0.731
same,relative viability,A-427; first compound 1 µM,0.733
same,relative viability,COR-L23; first compound 0.01 µM,0.394
same,relative viability,COR-L23; first compound 0.03162 µM,0.352
same,relative viability,COR-L23; first compound 0.1 µM,0.327
same,relative viability,COR-L23; first compound 0.3162 µM,0.318
same,relative viability,COR-L23; first compound 1 µM,0.37
same,relative viability,NCI-H1650; first compound 0.01 µM,0.667
same,relative viability,NCI-H1650; first compound 0.03162 µM,0.752
same,relative viability,NCI-H1650; first compound 0.1 µM,0.94
same,relative viability,NCI-H1650; first compound 0.3162 µM,0.739
same,relative viability,NCI-H1650; first compound 1 µM,0.624
same,relative viability,NCI-H727; first compound 0.01 µM,0.692
same,relative viability,NCI-H727; first compound 0.03162 µM,0.618
same,relative viability,NCI-H727; first compound 0.1 µM,0.679
same,relative viability,NCI-H727; first compound 0.3162 µM,0.711
same,relative viability,NCI-H727; first compound 1 µM,0.684
same,relative viability,H3255; first compound 0.01 µM,0.544
same,relative viability,H3255; first compound 0.03162 µM,0.517
same,relative viability,H3255; first compound 0.1 µM,0.567
same,relative viability,H3255; first compound 0.3162 µM,0.512
same,relative viability,H3255; first compound 1 µM,0.53
same,relative viability,NCI-H1793; first compound 0.01 µM,0.77
same,relative viability,NCI-H1793; first compound 0.03162 µM,0.857
same,relative viability,NCI-H1793; first compound 0.1 µM,0.928
same,relative viability,NCI-H1793; first compound 0.3162 µM,0.657
same,relative viability,NCI-H1793; first compound 1 µM,0.738
same,relative viability,201T; first compound 0.01 µM,0.817
same,relative viability,201T; first compound 0.03162 µM,0.842
same,relative viability,201T; first compound 0.1 µM,0.86
same,relative viability,201T; first compound 0.3162 µM,0.815
same,relative viability,201T; first compound 1 µM,0.866
same,relative viability,LU99A; first compound 0.01 µM,0.259
same,relative viability,LU99A; first compound 0.03162 µM,0.273
same,relative viability,LU99A; first compound 0.1 µM,0.277
same,relative viability,LU99A; first compound 0.3162 µM,0.27
same,relative viability,LU99A; first compound 1 µM,0.278
same,relative viability,LC-2-ad; first compound 0.01 µM,0.707
same,relative viability,LC-2-ad; first compound 0.03162 µM,0.694
same,relative viability,LC-2-ad; first compound 0.1 µM,0.77
same,relative viability,LC-2-ad; first compound 0.3162 µM,0.764
same,relative viability,LC-2-ad; first compound 1 µM,0.662
same,relative viability,LCLC-97TM1; first compound 0.01 µM,0.316
same,relative viability,LCLC-97TM1; first compound 0.03162 µM,0.374
same,relative viability,LCLC-97TM1; first compound 0.1 µM,0.502
same,relative viability,LCLC-97TM1; first compound 0.3162 µM,0.269
same,relative viability,LCLC-97TM1; first compound 1 µM,0.432
